BindingDB's records for doi:10.1021/np980119+ (University of California, 1999)

Test: Inhibition of phorbol ester-induced ornithine decarboxylase in human MCF7 cells after 6 hrs

Compound | IC50 [µM]
COc1cc(/C=C/c2ccc3c(c2)OC(C)(C)C=C3)cc(OC)c1OC [3,4,5-trimethoxy-6'',6''-dimethylpyran[2'',3'':3',4']stilbene] | 3.9
COc1cc(/C=C/C(=O)c2ccc3c(c2O)C=CC(C)(C)O3)ccc1O [3-methoxy-4-hydroxylonchocarpin] | 3.6
COc1cc(/C=C/c2cc(OC)c3c(c2)OC(C)(C)C=C3)ccc1O [3,5'-dimethoxy-4-hydroxy-6'',6''-dimethylpyran[2'',3'':3',4']stilbene] | 7.4

Now from value to compound:

IC50 [µM] | Compound
1.1 | COc1cc([C@@H]2CC(=O)c3c(O)c(CC=C(C)C)c4c(c3O2)C=CC(C)(C)O4)ccc1O [(2S)-6-(gamma,gamma-dimethylallyl)-5,4'-dihydroxy-3'-methoxy-6'',6''-dimethylpyran[2'',3'':7,8]flavanone]
19 | Oc1ccc(/C=C/c2cc(O)cc(O)c2)cc1 [5-[(E)-2-(4-hydroxyphenyl)ethenyl]benzene-1,3-diol]
26 | O=c1c(-c2ccc(O)cc2)coc2cc(O)cc(O)c12 [Prunetol]
2.3 | COc1ccc([C@@H]2CC(=O)c3cc(CC=C(C)C)c4c(c3O2)C=CC(C)(C)O4)cc1OC [(2S)-6-(gamma,gamma-dimethylallyl)-3',4'-dimethoxy-6'',6''-dimethylpyran[2'',3'':7,8]flavanone]
